According to patent US8324273B2 (XenoPort, Inc., priority 2006, dated 2012):

Experiments:
[1] = Hygroscopicity of crystalline hydrogen fumarate (21) crystallized from various solvents; assay type: physicochemical
Method: (1R)-2-Acetyloxy-1-methylethyl (2S)-2-amino-3-[3,4-bis(ethoxycarbonyloxy)phenyl]propanoate hydrogen fumarate (21) was crystallized using the solvents listed in Table 1 on a 100 mg scale.

[2] = following oral administration of NB-355; cited from earlier work
[3] = Intracolonic bioavailability of levodopa prodrugs in monkeys; assay type: in vivo, male Cynomologous monkeys; settings: male, monkey, whole blood, intravenous, 10 mg; read-out: mean AUCinf
Method: Male Cynomologous monkeys weighing about 3.0 kg were used in the studies. Monkeys are fasted overnight prior to the study until 4 hours after dosing. Water was provided ad libitum.
Carbidopa was prepared as a solution (0.72 mg/mL) in sodium acetate buffer pH 5.16.
Blood samples were collected at pre-dose and at 0.17, 0.25, 0.5, 0.75, 1, 2, 4, 6, 8, 12, and 24 hours post-dose. About 0.3 mL of blood was collected in pre-chilled K2EDTA tubes containing 100 μL of 10% sodium metabisulfite. The contents were gently vortexed at low speed to ensure that the sampled blood came into contact with sodium metabisulfite while maintaining ice on the samples at all times. About 0.1 mL of the anticoagulated blood was added to each of 2 pre-chilled cryovials that each contained about 0.3 mL of quenching media (89.3% v/v methanol and 10.7% v/v 4N perchloric acid) within 5 minutes of bleed. Within 30 minutes of blood collection, the samples were centrifuged at about 3,000 rpm, 4° C., for 10 min. The samples were then stored at −70° C.
Blood samples were analyzed as described in Example 30.

In the case of `CCOC(=O)Oc1ccc(C[C@H](N)C(=O)O[C@H](C)COC(C)=O)cc1OC(=O)OCC.O=C(O)/C=C/C(=O)O` [Compound 21, (1R)-2-Acetyloxy-1-methylethyl (2S)-2-Amino-3-[3,4-bis(ethoxycarbonyloxy)phenyl]propanoate Hydrogen Fumarate], the Hygroscopicity ([1]; crystallized from acetonitrile-methyl tert-butyl ether) is reported as “None”, the Hygroscopicity ([1]; crystallized from ethyl acetate) is reported as “None” and the Hygroscopicity ([1]; crystallized from ethyl acetate-diisopropyl ether) is reported as “None”. The Hygroscopicity ([1]; crystallized from ethyl acetate-methyl tert-butyl ether) was “None” and the melting point was 78.1 to 80.7 °C.
For `CC(C)(C)C(=O)Oc1ccc(C[C@H](N)C(=O)O)cc1O` [NB-355], the “duration of circulating levodopa” value [2] is listed as “prolonged” and the “plasma concentrations of levodopa” value [2] is listed as “low”.
`N[C@@H](Cc1ccc(O)c(O)c1)C(=O)O` [levodopa, L-3,4-dihydroxyphenylalanine] gave an AUC(0-inf) [3] of 3690 ng·h/mL.
